Results published in patent US20070190523A1 (priority 2002, published 2007).
Where two headings read alike, the source gives them in different places.

Columns and labels:
84V90M [1] = target: T1, 84V90M (Human immunodeficiency virus type 1 group M subtype B, UniProt P04585, I572V/L578M); assay: Cell-based assay (MT-4) EC50, 84V90M; set-up: species or system HIV-1
[2] = tested on: recombinant HIV-1 strains with resistance mutations in the protease gene; assay: Cross-Resistance Profile Assay, whole panel; format: cell-based
[3] = tested on: recombinant HIV-1 10F/46I/71V/82T/90M; assay: Cross-Resistance Profile Assay; format: cell-based
[4] = tested on: recombinant HIV-1 48V/54V/71V/82S; assay: Cross-Resistance Profile Assay; format: cell-based
[5] = tested on: recombinant HIV-1 10I/48V/71V/82A/90M; assay: Cross-Resistance Profile Assay; format: cell-based
[6] = tested on: recombinant HIV-1 46I/47V/50V; assay: Cross-Resistance Profile Assay; format: cell-based
[7] = tested on: recombinant HIV-1 10I/84V/71V/73S/90M; assay: Cross-Resistance Profile Assay; format: cell-based
[8] = tested on: recombinant HIV-1 46I/84A; assay: Cross-Resistance Profile Assay; format: cell-based
[9] = tested on: recombinant HIV-1 10R/46I/82T/84V; assay: Cross-Resistance Profile Assay; format: cell-based
30N82I88D = assay: microbe, parasite or virus in culture; format: cell-based, HIV
WT [10] = target: T2, WT (Human immunodeficiency virus type 1 group M subtype B, UniProt P04585); assay: cell-based; set-up: species or system HIV
46I50V = assay: microbe, parasite or virus in culture; format: cell-based, HIV
48V54V82A = assay: microbe, parasite or virus in culture; format: cell-based, HIV
[11] = target: recombinant HIV-1 protease (Human immunodeficiency virus type 1 group M subtype B, UniProt P04585); assay: biochemical; format: biochemical; conditions: Ki (nM)
84V90M [12] = target: T1, 84V90M; assay: biochemical; format: biochemical, HIV
48V82A90M = assay: microbe, parasite or virus in culture; set-up: species or system HIV; conditions: Human immunodeficiency virus 1, read-out: Cell-based assay (MT-4) EC50/nM 48V82A90M
84V90M [13] = target: T1, 84V90M; assay: cell-based; set-up: species or system HIV
48V54V82S = assay: microbe, parasite or virus in culture; set-up: species or system HIV; conditions: Human immunodeficiency virus 1, read-out: Cell-based assay (MT-4) EC50/nM 48V54V82S
WT [14] = target: T2, WT; assay: biochemical; set-up: species or system HIV
84V90M [15] = target: T1, 84V90M; format: biochemical, HIV-1; conditions: 84V90M enzyme; read-out: Enzymatic assay 84V90M IC50/nM
[16] = tested on: recombinant HIV-1 54V/71V/82S; assay: Cross-Resistance Profile Assay; format: cell-based
[17] = tested on: recombinant HIV-1 30N/50S/82I/88D; assay: Cross-Resistance Profile Assay; format: cell-based
[18] = tested on: recombinant HIV-1 10I/48V/54V/82A; assay: Cross-Resistance Profile Assay; format: cell-based
[19] = tested on: mutant HIV-1 with I84V/L90M mutations; format: cell-based; conditions: fold difference in EC50 vs wild type, class symbols
WT [20] = tested on: WT; set-up: species or system HIV-1; conditions: read-out: Cell-based assay (MT-4) EC50/nM WT

CCOP(=O)(CCNC(=O)Oc1ccc(CC2C(O)C(O)C(Cc3ccc(OC)cc3)N(Cc3ccc(O)cc3)C(=O)N2Cc2ccc(O)cc2)cc1)OCC (stereo not shown) [OCH3 / Ph-pOH / OCONH(CH2)2PO3Et2]
EC50 (84V90M [1]): 495 nM

O=C1N(Cc2ccccc2)C(Cc2ccccc2)C(O)C(O)C(Cc2ccc(OCP(=O)(OCc3ccccc3)OCc3ccccc3)cc2)N1Cc1ccccc1 (stereo not shown)
EC50 (84V90M [1]): > 6000 nM

CCCCOC(=O)C(C)NP(=O)(COc1ccc(CC(NC(=O)OC2COC3OCCC23)C(O)CN(CC(C)C)S(=O)(=O)c2ccc(OC)cc2)cc1)NC(C)C(=O)OCCCC (stereo not shown) [GS-16503]
Total No. of Resistant Viruses ([2]; resistance = 5-fold and higher change in EC50 relative to wild type, 11 mutant viruses): 0 | increase of conversion to acid metabolites at 1 μM vs. 10 μM (MT-2 cells): 3 fold

Cc1cccc(C)c1OCC(=O)N[C@@H](Cc1ccccc1)[C@@H](O)C[C@H](Cc1ccccc1)NC(=O)[C@H](C(C)C)N1CCCNC1=O [Lopinavir]
Total No. of Resistant Viruses ([2]; {}): 6 | Fold Change in EC50 Relative to WT HIV-1 [3]: 7.5 fold | Fold Change in EC50 Relative to WT HIV-1 [4]: 60 fold | Fold Change in EC50 Relative to WT HIV-1 [5]: 4.5 fold | Fold Change in EC50 Relative to WT HIV-1 [6]: 19 fold | Fold Change in EC50 Relative to WT HIV-1 [7]: 11 fold | Fold Change in EC50 Relative to WT HIV-1 [8]: 9 fold | Fold Change in EC50 Relative to WT HIV-1 [9]: 11 fold

CCOP(=O)(COCCCN1C(=O)N(Cc2ccc3[nH]nc(N)c3c2)C(Cc2ccccc2)C(O)C(O)C1Cc1ccccc1)OCC (stereo not shown) [OCH2PO3Et2]
EC50 (30N82I88D; MT-4, 30N82I88D, read-out: Cell-based assay (MT-4) EC50/nM 30N82I88D): 145 nM | EC50 (WT [10]; MT-4, WT, read-out: Cell-based assay (MT-4) EC50/nM WT): 356 nM | EC50 (46I50V; MT-4, 46I50V, read-out: Cell-based assay (MT-4) EC50/nM 46I50V): 138 nM | EC50 (48V54V82A; MT-4, 48V54V82A, read-out: Cell-based assay (MT-4) EC50/nM 48V54V82A): 175 nM

CCOP(=O)(CCCNC(=O)c1cccc(CN2C(=O)N(Cc3ccc(O)cc3)C(Cc3ccccc3)C(O)C(O)C2Cc2ccccc2)c1)OCC (stereo not shown)
EC50 (30N82I88D; Human immunodeficiency virus 1, read-out: Cell-based assay (MT-4) EC50/nM 30N82I88D): 74 nM | Ki [11]: 0.009 nM | IC50 (84V90M [12]): 12 nM | EC50 (WT [10]): 65 nM | EC50 (48V82A90M): 74 nM | EC50 (84V90M [13]): 311 nM | EC50 (48V54V82S): 75 nM | IC50 (WT [14]): 1.1 nM | EC50 (46I50V; Human immunodeficiency virus 1, read-out: Cell-based assay (MT-4) EC50/nM 46I50V): 85 nM | EC50 (48V54V82A; Human immunodeficiency virus 1, read-out: Cell-based assay (MT-4) EC50/nM 48V54V82A): 80 nM

CCOP(=O)(CCNC(=O)Oc1ccc(CC2C(O)C(O)C(Cc3ccc(OC)cc3)N(Cc3cccc(N)c3)C(=O)N2Cc2cccc(N)c2)cc1)OCC (stereo not shown) [OCH3 / Ph-mNH2 / OCONH(CH2)2PO3Et2]
EC50 (84V90M [1]): 2260 nM | IC50 (84V90M [15]): 116 nM

CCC[C@@]1(CCc2ccccc2)CC(O)=C([C@H](CC)c2cccc(NS(=O)(=O)c3ccc(C(F)(F)F)cn3)c2)C(=O)O1 [Tipranavir]
Total No. of Resistant Viruses ([2]; {}): 1 | Fold Change in EC50 Relative to WT HIV-1 [16]: 3.5 fold | Fold Change in EC50 Relative to WT HIV-1 [17]: 0.5 fold | Fold Change in EC50 Relative to WT HIV-1 [3]: 3 fold | Fold Change in EC50 Relative to WT HIV-1 [4]: 2 fold | Fold Change in EC50 Relative to WT HIV-1 [5]: 0.3 fold | Fold Change in EC50 Relative to WT HIV-1 [6]: 0.5 fold | Fold Change in EC50 Relative to WT HIV-1 [8]: 1 fold | Fold Change in EC50 Relative to WT HIV-1 [18]: 0.4 fold | I84V/L90M fold change [19]: + (>3 to ≦10) | Fold Change in EC50 Relative to WT HIV-1 [9]: 5 fold

O=C1N(Cc2ccccc2)C(Cc2ccccc2)C(O)C(O)C(Cc2ccc(O)cc2)N1Cc1ccccc1 (stereo not shown) [H / Ph / OH]
EC50 (WT [20]): 1260 nM
